Laboratory results reported in patent publication US20240190866A1, “POLYHYDROXYLATED INDOLIZIDINE AND PYRROLIZIDINE DERIVATIVES AND USES THEREOF” (Academia Sinica, priority 2021, published 2024).
pIC50: −log10 of the molar value. Where two headings read alike, the source gives them in different places.

What was measured:
[1] = target: human Golgi α-mannosidase II (α-hGMII) (Homo sapiens (Human), UniProt Q16706); assay: Golgi α-mannosidase II (α-hGMII) activity assay, 4-MU-α-D-mannopyranoside substrate; assay type: biochemical; settings: for pIC50: pH 7.0, 37° C., 2 h; for Selectivity Index (SI): selectivity toward α-hGMII than α-hLM
Experimental: (§1) Compounds were diluted to give the final concentration of 100 μM and mixed with 4-MU-α-D-mannopyranoside as substrate and human Golgi α-mannosidase II in phosphate buffer (0.1 M Sodium phosphate dibasic, pH 7.0) or human lysosomal α-mannosidase in citric phosphate buffer (0.1 M Sodium phosphate monobasic monohydrate, 0.5 mM citric acid monohydrate, pH 4.6). The assay was carried out at 37° C. for a certain time (1 h for α-hLM, 2 h for α-hGMII). Stop solution (0.5 M K2CO3(aq), pH 10.8) was then added to the reactions and the fluorescence was determined at 355 nm excitation and 460 nm emission (SpectraMax M5, Molecular Devices). Inhibition was performed as relative enzyme activity to control. The active compounds were selected for libraries preparation and further tested at lower concentration to determine their IC50 values. The assays performed in 384-wells of the microtiter plates.

[2] = Serum biochemistry assay in Huh7 xenograft mice; assay type: in vivo, NOD-SCID mice; settings: 30 mg/kg i.p., twice a week; for ALT / AST / BUN / CRE / TBIL: serum
Experimental: All blood specimens were collected in tubes and were left at 25° C. for 30 min to clot and centrifuged for 10 min at 1200 g. The concentrations of the following biochemical serum analytes collected were measured with FUJI DRI-CHEM 500i analyzer (FUJIFILM Corp., Tokyo, Japan) using the manufacturer's reagents and according to the manufacturer's instructions: Alanine Aminotransferase ALT), Aspartate Aminotransferase (AST), Blood Urea Nitrogen (BUN), Creatinine (CRE) and Total Bilirubin (TBIL).
(§2) HCC xenografts were established in 5-6 weeks old NOD-SCID mice by subcutaneous inoculation of about 5×10^6 Huh7 cells suspended in 50 μL PBS+50 μL, Matrigel (Corning, 394230) in the left and right flanks of each mouse. After one week of inoculation, tumors were palpable and the mice were assigned randomly to 1 of 4 treatment groups. Group 1 (vehicle control group, n=6) mice only received a vehicle solution containing Kolliphor EL (Sigma Aldrich, C5135), 99.9% ethanol and water in a ratio of 1:1:6. Groups 2, 3, 4 and 5 mice were intraperitoneally injected with the test compound (e.g., compound ACK900, ACK901, or ACK902) (30 mg/kg, ip, n=7/group) or sorafenib (30 mg/kg, ip, n=6/group), twice per week for 25 days. The tumor volume was calculated by the formula of a ratioinal ellipsoid: [0.5236×short axis) m1^2×(long axis)m^2], and the tumor volume was measured twice per week. All mice were sacrificed at 27 days after the treatment started. Tumor tissues were isolated, photographed and weighted.
In vivo tumor growth inhibition studies in human Huh7 xenograft rodents were performed in accordance with procedures as described in the “Material and Method” section. Xenograft tumors were generated by implanting Huh7 cells (5×10^6) subcutaneously into the left and right flanks of each NOD-SCID mouse. Starting on the 7th day after the inoculation of Huh7 cells, the mice were injected with ACK900, ACK901, ACK902 or sorafenib intraperitoneally (i.p.) at a dose of 30 mg/kg and twice a week for 34 days.

H1975 cells = assay: Anti-proliferative activity assay (CellTiter-Glo); assay type: cell-based, human; settings: 48 h
Experimental: (§3) Human liver cancer HepG2 cells and Huh7 cells, breast cancer MDA-MB-231 cells, pancreatic cancer PANC-1 cells, and non-small cell lung (NSCL) cancer H1975 cells were maintained in Dulbecco's Modified Eagle Medium supplemented containing 10% fetal bovine serum (FBS), 100 units/ml penicillin and […] streptomycin in 37° C. incubator with 5% CO2.
(§4) Anti-proliferative activity of HepG2, Huh7 or PANC-1 cells was determined by 3-(4,5-dimethylthiazol-2-yl)-2,5-diphenyltetrazolium bromide (MTT) assay, while that of H1975 or MDA-MB-231 cells was determined by luminescent assay with the aid of commercial kit CellTiter-Glo® (Promega).
(§5) For H1975 and MDA-MB-231, cells were respectively seeded at 5×10^3 cells/well in 96-well plates and maintained for 14-16 hours. Cells were treated with dimethylsulfoxide (DMSO) or test compounds in varied concentrations for 48 h. Cell viability was monitored using Cell-TiterGlo (Promega), a kit that measures the quantity of ATP present in the cell culture, an indicator of metabolically active cells. The IC50 values of death cell lines were calculated accordingly.

MDA-MB-231 cells = assay: Anti-proliferative activity assay (CellTiter-Glo); assay type: cell-based, human
Experimental: as §3, §4, §5

[3] = target: human lysosomal α-mannosidase (α-hLM) (Homo sapiens (Human), UniProt O00754); assay: α-Mannosidase (α-hLM) activity assay, 4-MU-α-D-mannopyranoside substrate; assay type: biochemical; settings: pH 4.6, 37° C., 1 h
Experimental: as §1

[4] = tested on: all cancer cell lines (HepG2, Huh7, PANC-1, H1975, MDA-MB-231); assay: Anti-proliferative activity, pooled statement over all cancer cell lines; assay type: cell-based, human; settings: read-out: half maximum inhibitory concentration (IC50), range in all cancer cell lines
Experimental: as §4
(§6) Cancer cells including HepG2, Huh7 and PANC-1 cells were respectively seeded at 10^4, 4×10^3, and 5×10^3 cells/well in 96-well plates and maintained for 14-16 hours. Cells were treated with dimethylsulfoxide (DMSO) or test compounds in varied concentrations for 72 h. Cells were then washed with PBS twice, added a medium containing 3-(4,5-dimethylthiazol-2-yl)-2,5-diphenyltetrazolium bromide (MTT) at a final concentration of 0.5 mg/mL, and incubated for 4 h at 37° C. in a humidified incubator containing 5% CO2 in air. Cells having functional succinate dehydrogenase of mithchondria would convert MTT to formazan. Then, the medium was replaced with 100 μL of DMSO for 30 min at room temperature, and the 96-well plate was read by an ELISA reader at 550 nm to get the absorbance density values. The IC50 values of death cell lines were calculated accordingly.
as §5

PANC-1 cells [5] = assay: Transwell invasion assay; assay type: cell-based, human; settings: PANC-1, transwell
Experimental: (§7) Chemotaxis experiments with human HepG2Huh7, or PANC-1 cells were assayed by using transwells (Millipore). The cells to be analyzed (5×10^4 cells/well) were seeded in the upper chambers of the 24-well plate in 400 μL serum-free medium. FBS (10%) was used as the chemoattractant with or without different concentrations of the test compound (e.g., ACK900, ACK901, ACK902) in the lower chamber, and the plate was incubated under standard conditions. After incubation for 18 hours, the media in the upper chambers were aspirated and washed with phosphate-buffered saline (PBS) twice. Both non-migrated and migrated cells were fixed with 4% paraformaldehyde (PFA) for 30 minutes at room temperature, stained with 2% crystal violet solution. The non-invading cells were removed from the upper surface of the insert membrane with a cotton swab. The images were taken using an imaging reader (Cytation 5, BioTek, VT, U.S.A.) and analyzed using NIH ImageJ software. Percent in the results represent percent of initial number of cells in the migrating and nonmigrating Cell fractions.

Huh7 cells [6] = assay: Transwell invasion assay; assay type: cell-based, human
Experimental: as §7

PANC-1 cells [7] = assay: Transwell migration assay; assay type: cell-based, human; settings: PANC-1, transwell, 18 hours
Experimental: as §7

Huh7 cells [8] = assay: Transwell migration assay; assay type: cell-based, human; settings: 18 hours
Experimental: as §7

PANC-1 cells [9] = assay: Anti-proliferative activity assay (MTT); assay type: cell-based, human; settings: 72 h
Experimental: as §3, §4, §6

HepG2 cells [10] = assay: Anti-proliferative activity assay (MTT); assay type: cell-based, human; settings: 72 h
Experimental: as §3, §4, §6

Huh7 cells [11] = assay: Anti-proliferative activity assay (MTT); assay type: cell-based, human; settings: 72 h
Experimental: as §3, §4, §6

Huh7 xenograft tumors = assay: Human hepatocarcinoma (HCC) Huh7 cells xenograft animal model; assay type: in vivo, NOD-SCID mice; settings: 30 mg/kg i.p., twice a week
Text: A total of 34 NOD-SCID mice to (5- to 6-week-old) were maintained in micro-isolator units on a standard laboratory diet. Animals were housed under humidity- and temperature-controlled conditions and the light/dark cycle was set at 12-hour intervals, maintained under specified and opportunistic pathogen-free conditions. Mice were quarantined at least 1 week before experimental manipulation
as §2, with “weighted. […]” for “weighted.”

HepG2 cells [12] = settings: Data from Int. J. Med. Sci. 2017, 14, 523; cited from earlier work
Huh7 cells [13] = settings: Data from Int. J. Med. Sci. 2017, 14, 523; cited from earlier work

Sequence of human Golgi α-mannosidase II (α-hGMII) (Q16706 whole entry): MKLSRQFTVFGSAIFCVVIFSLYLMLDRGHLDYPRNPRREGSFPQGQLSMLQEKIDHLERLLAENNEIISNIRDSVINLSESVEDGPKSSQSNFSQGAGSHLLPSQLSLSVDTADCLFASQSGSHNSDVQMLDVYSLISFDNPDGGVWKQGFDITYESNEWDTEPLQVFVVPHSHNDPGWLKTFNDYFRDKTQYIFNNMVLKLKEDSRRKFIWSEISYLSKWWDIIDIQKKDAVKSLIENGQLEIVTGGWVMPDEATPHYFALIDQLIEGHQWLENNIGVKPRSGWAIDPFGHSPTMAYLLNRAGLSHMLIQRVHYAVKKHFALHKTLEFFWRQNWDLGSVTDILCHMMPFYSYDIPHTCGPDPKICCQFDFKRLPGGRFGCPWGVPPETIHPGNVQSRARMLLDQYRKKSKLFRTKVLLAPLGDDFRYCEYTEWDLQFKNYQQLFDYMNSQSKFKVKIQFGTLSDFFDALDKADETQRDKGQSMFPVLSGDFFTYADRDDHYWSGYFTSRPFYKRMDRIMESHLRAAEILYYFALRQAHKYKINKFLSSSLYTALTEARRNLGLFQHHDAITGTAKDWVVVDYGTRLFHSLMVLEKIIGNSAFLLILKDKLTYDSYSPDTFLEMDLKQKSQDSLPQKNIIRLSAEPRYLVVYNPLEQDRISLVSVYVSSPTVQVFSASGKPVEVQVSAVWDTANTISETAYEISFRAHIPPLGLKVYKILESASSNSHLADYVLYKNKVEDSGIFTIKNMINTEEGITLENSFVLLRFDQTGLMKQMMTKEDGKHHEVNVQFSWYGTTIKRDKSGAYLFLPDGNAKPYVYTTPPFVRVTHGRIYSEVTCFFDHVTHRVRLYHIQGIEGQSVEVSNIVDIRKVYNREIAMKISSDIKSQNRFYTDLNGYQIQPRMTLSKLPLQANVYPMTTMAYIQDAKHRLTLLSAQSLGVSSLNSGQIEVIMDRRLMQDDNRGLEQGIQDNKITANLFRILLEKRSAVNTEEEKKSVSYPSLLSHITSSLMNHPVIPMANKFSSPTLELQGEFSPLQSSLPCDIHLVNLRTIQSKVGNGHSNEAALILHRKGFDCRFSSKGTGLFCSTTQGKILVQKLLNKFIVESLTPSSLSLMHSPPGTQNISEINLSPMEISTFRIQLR
Sequence of human lysosomal α-mannosidase (α-hLM) (O00754 50-1011): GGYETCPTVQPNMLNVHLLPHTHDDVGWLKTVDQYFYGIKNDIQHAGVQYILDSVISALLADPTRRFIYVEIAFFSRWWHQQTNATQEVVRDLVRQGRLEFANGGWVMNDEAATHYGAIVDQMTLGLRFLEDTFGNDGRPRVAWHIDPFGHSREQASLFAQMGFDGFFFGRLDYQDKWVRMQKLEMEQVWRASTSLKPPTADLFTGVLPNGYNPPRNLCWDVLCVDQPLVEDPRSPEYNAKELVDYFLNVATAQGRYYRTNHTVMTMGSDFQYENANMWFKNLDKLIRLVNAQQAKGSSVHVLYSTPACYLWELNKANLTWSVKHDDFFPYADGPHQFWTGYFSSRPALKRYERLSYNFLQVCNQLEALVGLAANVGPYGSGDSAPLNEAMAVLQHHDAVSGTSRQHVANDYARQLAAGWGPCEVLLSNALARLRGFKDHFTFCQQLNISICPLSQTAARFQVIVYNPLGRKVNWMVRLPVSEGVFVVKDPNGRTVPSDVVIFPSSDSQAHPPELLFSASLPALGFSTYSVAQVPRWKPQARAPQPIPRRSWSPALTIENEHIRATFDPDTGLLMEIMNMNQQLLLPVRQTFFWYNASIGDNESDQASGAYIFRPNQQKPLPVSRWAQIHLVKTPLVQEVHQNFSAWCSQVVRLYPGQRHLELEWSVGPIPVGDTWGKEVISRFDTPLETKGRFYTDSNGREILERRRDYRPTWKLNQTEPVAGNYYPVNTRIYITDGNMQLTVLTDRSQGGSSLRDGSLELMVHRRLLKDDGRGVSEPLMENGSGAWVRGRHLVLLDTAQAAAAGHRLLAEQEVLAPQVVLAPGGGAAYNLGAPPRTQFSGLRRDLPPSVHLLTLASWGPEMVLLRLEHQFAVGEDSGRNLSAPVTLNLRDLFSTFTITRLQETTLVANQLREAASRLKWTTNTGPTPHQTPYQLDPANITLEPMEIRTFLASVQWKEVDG

pIC50 [1] | Selectivity Index (SI) [1] | BUN [2] [mg/dL] | CRE [2] [mg/dL] | TBIL [2] [mg/dL] | pIC50 [3] | Structure (SMILES) | ALT [2] [U/L] | AST [2] [U/L] | also measured
5.80 | 4.3 | 23.87 ± 4.30 | 0.43 ± 0.11 | 0.9 ± 0.56 | 5.17 | CCC[C@H]1CC[C@H](c2ccc(C(=O)NC[C@@H]3[C@@H](O)[C@@H](O)[C@H]4[C@H](O)CCCN43)cc2)CC1 [ACK902] | 64.42 ± 57.49 | 250 ± 182.44 | pIC50 (H1975 cells): 4.94; pIC50 (MDA-MB-231 cells; 48 h): 5.00; pIC50 [4]: 4.72 to 6.52; invasive capability (PANC-1 cells [5]): remarkably decreased; invasive capability (Huh7 cells [6]): remarkably decreased; migratory capability (PANC-1 cells [7]): remarkably decreased; migratory capability (Huh7 cells [8]): remarkably decreased; pIC50 (PANC-1 cells [9]): 5.80; pIC50 (HepG2 cells [10]): 4.84; pIC50 (Huh7 cells [11]): 5.43
6.10 | 1.2 | – | – | – | 6.02 | COc1ccc(NC(=S)NC[C@@H]2[C@@H](O)[C@@H](O)[C@H]3[C@H](O)CCCN32)cc1 [ACK904] | – | – | –
– | – | 23 ± 2.53 | 0.35 ± 0.19 | 0.73 ± 0.32 | – | CNC(=O)c1cc(Oc2ccc(NC(=O)Nc3ccc(Cl)c(C(F)(F)F)c3)cc2)ccn1 [Sorafenib, sorafenib, reference compound] | 61.33 ± 54.45 | 135.33 ± 90.76 | serious side effects including hepatoxicity and nephrotoxicity [2]: no serious side effects including hepatoxicity and nephrotoxicity were observed; signs of harm or decreased body weight (Huh7 xenograft tumors): none of the mice injected with ACK900-ACK902 or sorafenib exhibited signs of harm or decreased body weight; tumor volume vs control (Huh7 xenograft tumors; P<0.05): Significant reduction; pIC50 (HepG2 cells [12]): 5.13; pIC50 (Huh7 cells [13]): 5.22
5.89 | 1.1 | – | – | – | 5.82 | O[C@@H]1[C@H](O)[C@@H](CNC(=S)Nc2ccccc2)N2CCC[C@@H](O)[C@H]12 [ACK905] | – | – | –
– | – | – | – | – | – | COc1cccc2c1C(=O)c1c(O)c3c(c(O)c1C2=O)C[C@@](O)(C(=O)CO)C[C@@H]3O[C@H]1C[C@H](N)[C@H](O)[C@H](C)O1 [Doxorubicin, doxorubicin, reference compound] | – | – | pIC50 (MDA-MB-231 cells; Homo sapiens, MDA-MB-231, 48 h): 5.52 to 5.89
6.00 | – | 21.87 ± 3.77 | 0.47 ± 0.18 | 0.64 ± 0.37 | 4.67 | CCCCCC[C@H]1CC[C@H](c2ccc(NC(=S)NC[C@@H]3[C@@H](O)[C@@H](O)[C@H]4[C@H](O)CCCN43)cc2)CC1 [ACK901] | 74.85 ± 82.13 | 173.85 ± 95.67 | pIC50 (H1975 cells): 5.11; pIC50 (MDA-MB-231 cells; 48 h): 6.00; pIC50 [4]: 4.72 to 6.52; invasive capability (PANC-1 cells [5]): remarkably decreased; invasive capability (Huh7 cells [6]): remarkably decreased; migratory capability (PANC-1 cells [7]): remarkably decreased; migratory capability (Huh7 cells [8]): remarkably decreased; pIC50 (PANC-1 cells [9]): 6.52; pIC50 (HepG2 cells [10]): 5.74; pIC50 (Huh7 cells [11]): 5.89

Structure (SMILES) | pIC50 [1] | Selectivity Index (SI) [1] | BUN [2] [mg/dL] | CRE [2] [mg/dL] | TBIL [2] [mg/dL] | pIC50 [3] | ALT [2] [U/L] | AST [2] [U/L] | also measured
O[C@H]1[C@H]2[C@H](O)CCCN2C[C@H]1O [Swainsonine, swainsonine, reference compound] | 7.40 | 2 | – | – | – | – | – | – | –
O=C(NC[C@@H]1[C@@H](O)[C@@H](O)[C@H]2[C@H](O)CCCN21)c1ccc(-c2ccccc2)cc1 [ACK903] | 6.72 | 3.4 | – | – | – | 6.19 | – | – | –
